Reference: patent US20250051395A1, “PEPTIDES AND METHODS FOR USE IN TREATING PAIN” (TAFALGIE THERAPEUTICS, priority 2021, published 2025)

Tests used:
[1] = system: paw incision model (postoperative pain), C57Bl6 mice; assay: Paw incision (Brennan) postoperative pain model, Von Frey paw withdrawal threshold, curative treatment; format: in vivo; details: morphine oral, 1 mg/kg, D1 after paw incision
Protocol: Mice were anesthetized with ketamine (100 mg/kg IP) and xylazine (10 mg/kg IP) and a longitudinal incision was made through the skin and fascia of the right hind paw. Forceps were used to elevate the flexor digitorum brevis muscle longitudinally and an incision was made through the muscle with a scalpel, to cut it into two halves. The wound was closed with sutures, and the animals were allowed to recover and returned to their cages. The paw incision was used as postoperative pain model.
(§1) The Von Frey's uses Von Frey (VF) hair or fibers, which are small pieces of nylon rod, approximately 50 mm in length to test a rodent's sensitivity to a mechanical stimulus. In this test, the animal stands on an elevated mesh platform, and the Von Frey hairs are inserted through the mesh to poke the animal's hindpaw. Normal reactions for the animal include withdrawing or licking or shaking the paw. The “up-down” Von Frey method is used to determine the mechanical force required to elicit a paw withdrawal response in 50% of animals. Here, mice were placed in plastic chambers on a wire mesh grid and stimulated with von Frey filaments (Bioseb) by the “up-down” method (45) starting with a 1 g filament, and using 0.04 and 4 g filaments as the cutoffs.
The experiments were conducted on eight-week-old male WT C57Bl6. Three groups of 8 mice were used. […]

[2] = system: injury-induced mechanical hypersensitivity in mice; details: cited from earlier work
[3] = system: Spared Nerve Injury (SNI) model, C57Bl6 mice; assay: Spared Nerve Injury (SNI) model of neuropathic pain, Von Frey up-down paw withdrawal threshold; format: in vivo; details: for antalgic effect when administered orally: per os, 7 days after surgery, vs vehicle (FIG. 5)
Protocol: Mice were anesthetized with ketamine (100 mg/kg IP) and xylazine (10 mg/kg IP) and the left sciatic nerve was exposed under aseptic conditions. The distal trifurcation of the sciatic nerve was identified and the tibial and common peroneal branches were ligated with polypropylene nonabsorbable 6-0 sutures (Ethicon); 1 mm was cut out, leaving the sural branch intact. The wound was closed with sutures, and the animals were allowed to recover and returned to their cages.
as §1
The experiments were conducted on eight-week-old male WT C57Bl6 mice. Three groups of 8 mice were used. Peptide of SEQ ID NO: 1 is resuspended in 0.9% NaCl at [0.6 mg/mL]. The peptide was diluted and used at a concentration of 0.3 mg/kg in this study.
After having measured the base threshold of mice with Von Frey (VF) filaments by the up/down method, the SNI model is set into place. The mice are anesthetized, ligature of the tibial nerve and of the fibular nerve is put into practice and these two nerves are then severed. The sural nerve left intact develops neuropathy quite rapidly. The occurrence of neuropathy is ascertained after 3 days post-surgery. A decrease in the response threshold to Von Frey filaments of the ipsilateral paw is thereby observed.
7 days after surgery, the response threshold is again measured. 100 μl/10 g of each of the peptide solutions, of vehicle and pregabalin solution are then blind-injected subcutaneously for the experimenter.
The same protocol was used as described in 1.1 except that the administration of the peptide, vehicle and pregabalin was done 14 days after surgery using per os administration for the peptide and vehicle.
For per os administration, the peptide of SEQ ID NO: 1 was diluted at a concentration of 30 μg/mL in a solution of 1% w/v Hydroxypropylmethylcellulose (Sigma-aldrich #423238, batch MKCD3665), 0.5% v/v Tween 80 (Euromedex #2002-A, batch 100412/16S407), referred then after as HPMC solution (vehicle).
Vehicle and peptide solution were orally administered using two gavage needles. […]

[4] = system: carrageenan model (inflammatory pain), C57Bl6 mice; assay: Carrageenan injection inflammatory pain model, Von Frey paw withdrawal threshold; format: in vivo; details: celecoxib subcutaneous, 20 mg/kg
Protocol: Inventors injected 20 μl of 1% λ-carrageenan (Sigma-Aldrich, 22049-5G-F) in 1×PBS into the plantar surface of the left hind paw of the mouse with a Hamilton syringe. The carrageenan injection was used as an inflammatory pain model.
as §1
The experiments were conducted on eight-week-old male WT C57Bl6. Three groups of 8 mice were used.
As previously described, measurement with Von Frey filaments by the up/down method for determining the baseline was done. Then, an intraplantar injection of 20 μl of carrageenan (1%) was performed into a hind paw. […] Celecoxib is a well-known drug used as positive control.

[5] = pregabalin 5 mg/kg by gavage, day 14 post-SNI

In the case of `CN1CC[C@]23c4c5ccc(O)c4O[C@H]2[C@@H](O)C=C[C@H]3[C@H]1C5` [morphine], the response threshold [1] is reported as “increase in the response threshold”.

In the case of “TAFA-4 full length protein: human TAFA-4 mature protein of 105 amino acid residues, secreted neurokine of the prior art”, the “mechanical hypersensitivity (inflammatory, post-operative, nerve injury-induced)” value ([2]; intrathecal and subcutaneous administration, male and female mice) is listed as “reverses inflammatory, post-operative and nerve injury-induced mechanical hypersensitivity”, the “prolonged nerve injury-induced mechanical hypersensitivity of TAFA-4 gene deleted mice” value ([2]; intrathecal injection, TAFA-4 gene deleted mice) is listed as “reversed” and the “antalgic effect when administered orally” value [3] is listed as “did not show significant antalgic effect”. The “antalgic effect when administered orally” value ([3]; listed as TAFA4) was “No statistical differences”.

With `Cc1ccc(-c2cc(C(F)(F)F)nn2-c2ccc(S(N)(=O)=O)cc2)cc1` [celecoxib] the “time of maximum antalgic effect” value [4] was 2 h.

For `CC(C)C[C@H](CN)CC(=O)O` [pregabalin, reference compound], the “effect on mechanical threshold at 4 h post-administration” value [3, 5] was “completely abolished” and the “time of maximum reversal effect on mechanical threshold” value [3, 5] was 2 h.
